What is called IC50 is the concentration needed to halve the response being measured. Read a low IC50 as greater potency in that assay.

Among the data in US8933079B2, “Pyridone and pyridazinone derivatives as anti-obesity agents” (Boehringer Ingelheim International GmbH, priority 2012, dated 2015) are IC50 values, retold here.

This experiment has as its target hMCH-1R (Homo sapiens (Human), UniProt Q99705). The experiment can be described thus: MCH-1 receptor binding test (125I-MCH binding to hMCH-1R transfected cell membranes). The note with it: competition with 100 pM 125I-MCH, membranes of CHO/Galpha16 cells stably transfected with hMCH-1R. The method, then: Res Commun. […] After the incubation the reaction is filtered using a cell harvester through 0.5% PEI treated fibreglass filters (GF/B, Unifilter Packard). The membrane-bound radioactivity retained on the filter is then determined after the addition of scintillator substance (Packard Microscint 20) in a measuring device (TopCount of Packard). […] The analysis of the concentration binding curve is carried out on the assumption of one receptor binding site.

Chain of hMCH-1R (Q99705 whole entry): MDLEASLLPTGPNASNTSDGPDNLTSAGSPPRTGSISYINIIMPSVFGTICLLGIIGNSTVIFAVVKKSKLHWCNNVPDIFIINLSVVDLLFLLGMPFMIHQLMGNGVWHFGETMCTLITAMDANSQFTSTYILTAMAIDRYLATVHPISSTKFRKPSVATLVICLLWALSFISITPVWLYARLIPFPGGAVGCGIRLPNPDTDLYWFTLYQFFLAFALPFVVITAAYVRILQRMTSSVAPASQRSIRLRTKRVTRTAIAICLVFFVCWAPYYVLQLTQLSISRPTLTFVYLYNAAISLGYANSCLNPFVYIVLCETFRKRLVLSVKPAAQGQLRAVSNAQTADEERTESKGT

As for `Cc1cc(CN2CC(O)C2)ccc1C(=O)Cn1ccc(OCc2ccccc2)cc1=O` [Example 1.1, 4-Benzyloxy-1-{2-[4-(3-hydroxy-azetidin-1-ylmethyl)-2-methyl-phenyl]-2-oxo-ethyl}-1H-pyridin-2-one], the IC50 is 20 nM.
Under `CNCc1ccc(C(=O)Cn2ccc(OCc3ccccc3)cc2=O)c(C)c1` [Example 1.2, 4-Benzyloxy-1-[2-(2-methyl-4-methylaminomethyl-phenyl)-2-oxo-ethyl]-1H-pyridin-2-one] stands 19 nM.
Under `Cc1cc(CN2CCC(O)CC2)ccc1C(=O)Cn1ccc(OCc2ccccc2)cc1=O` [Example 1.3, 4-Benzyloxy-1-{2-[4-(4-hydroxy-piperidin-1-ylmethyl)-2-methyl-phenyl]-2-oxo-ethyl}-1H-pyridin-2-one] stands 19 nM; under `Cc1cc(CN2CCOCC2)ccc1C(=O)Cn1ccc(OCc2ccccc2)cc1=O` [Example 1.4], 40 nM; under `Cc1cc(CN2CCN(C)CC2)ccc1C(=O)Cn1ccc(OCc2ccccc2)cc1=O` [Example 1.5, 4-Benzyloxy-1-{2-[2-methyl-4-(4-methyl-piperazin-1-ylmethyl)-phenyl]-2-oxo-ethyl}-1H-pyridin-2-one], 48 nM.
As for `Cc1cc(CN2CCC(CO)CC2)ccc1C(=O)Cn1ccc(OCc2ccccc2)cc1=O` [Example 1.6, 4-Benzyloxy-1-{2-[4-(4-hydroxymethyl-piperidin-1-ylmethyl)-2-methyl-phenyl]-2-oxo-ethyl}-1H-pyridin-2-one], the figure is 24 nM; as for `Cc1cc(CN2CCCC2)ccc1C(=O)Cn1ccc(OCc2ccccc2)cc1=O` [Example 1.7, 4-Benzyloxy-1-[2-(2-methyl-4-pyrrolidin-1-ylmethyl-phenyl)-2-oxo-ethyl]-1H-pyridin-2-one], 11 nM.
As to `Cc1cc(CN2CCCCC2)ccc1C(=O)Cn1ccc(OCc2ccccc2)cc1=O` [Example 1.9], the half-inhibitory concentration (IC50) was determined as 11 nM.
`Cc1cc(CN2CCC(C)(O)C2)ccc1C(=O)Cn1ccc(OCc2ccccc2)cc1=O` (stereo not drawn) [Example 1.10, 4-Benzyloxy-1-{2-[4-(3-hydroxy-3-methyl-pyrrolidin-1-ylmethyl)-2-methyl-phenyl]-2-oxo-ethyl}-1H-pyridin-2-one] displayed a concentration for half-maximal inhibition (IC50) of 26 nM.
Molecule `Cc1cc(CN2CC[C@H](O)C2)ccc1C(=O)Cn1ccc(OCc2ccccc2)cc1=O` [Example 1.11, (S)-4-Benzyloxy-1-{2-[4-(3-hydroxy-pyrrolidin-1-ylmethyl)-2-methyl-phenyl]-2-oxo-ethyl}-1H-pyridin-2-one] gave a concentration for half-maximal inhibition (IC50) of 30 nM.
Under `CCNCc1ccc(C(=O)Cn2ccc(OCc3ccccc3)cc2=O)c(C)c1` [Example 1.12, 4-Benzyloxy-1-[2-(4-ethylaminomethyl-2-methyl-phenyl)-2-oxo-ethyl]-1H-pyridin-2-one] stands 21 nM; under `Cc1cc(CN2CCC[C@H](O)C2)ccc1C(=O)Cn1ccc(OCc2ccccc2)cc1=O` [Example 1.13, (S)-4-Benzyloxy-1-{2-[4-(3-hydroxy-piperidin-1-ylmethyl)-2-methyl-phenyl]-2-oxo-ethyl}-1H-pyridin-2-one], 29 nM; under `Cc1cc(CN2CC[C@@H](O)C2)ccc1C(=O)Cn1ccc(OCc2ccccc2)cc1=O` [Example 1.14], 53 nM.
Under `Cc1cc(CN2CCC[C@@H](O)C2)ccc1C(=O)Cn1ccc(OCc2ccccc2)cc1=O` [Example 1.15, (R)-4-Benzyloxy-1-{2-[4-(3-hydroxy-piperidin-1-ylmethyl)-2-methyl-phenyl]-2-oxo-ethyl}-1H-pyridin-2-one] stands 31 nM.
Under `Cc1cc(CN2CCCC[C@@H]2CO)ccc1C(=O)Cn1ccc(OCc2ccccc2)cc1=O` [Example 1.16] stands 29 nM; under `Cc1cc(CN2CCC[C@H]2CO)ccc1C(=O)Cn1ccc(OCc2ccccc2)cc1=O` [Example 1.17, (S)-4-Benzyloxy-1-{2-[4-(2-hydroxymethyl-pyrrolidin-1-ylmethyl)-2-methyl-phenyl]-2-oxo-ethyl}-1H-pyridin-2-one], 26 nM.
`Cc1cc(CN2CC3CC(C2)C3O)ccc1C(=O)Cn1ccc(OCc2ccccc2)cc1=O` (stereo not drawn) [Example 1.18] yielded an IC50 of 16 nM.
The molecule `Cc1cc(CN2CCCC2)ccc1C(=O)Cn1ccc(OCc2ccc(F)cn2)cc1=O` [Example 2.1, 4-(5-Fluoro-pyridin-2-ylmethoxy)-1-[2-(2-methyl-4-pyrrolidin-1-ylmethyl-phenyl)-2-oxo-ethyl]-1H-pyridin-2-one] showed an IC50 of 67 nM.
With `Cc1cc(CN2CCCCC2)ccc1C(=O)Cn1ccc(OCc2ccc(F)cn2)cc1=O` [Example 2.2], the IC50 amounted to 116 nM.
As for `Cc1cc(CN2CCC(O)CC2)ccc1C(=O)Cn1ccc(OCc2ccc(F)cn2)cc1=O` [Example 2.3], the figure is 93 nM; as for `Cc1cc(CN2CC[C@H](O)C2)ccc1C(=O)Cn1ccc(OCc2ccc(F)cn2)cc1=O` [Example 2.4], 70 nM.
With `Cc1cc(CN(C)C)ccc1C(=O)Cn1ccc(OCc2ccc(F)cn2)cc1=O` [Example 2.5], the concentration for half-maximal inhibition (IC50) worked out at 70 nM.
Under `CCNCc1ccc(C(=O)Cn2ccc(OCc3ccc(F)cn3)cc2=O)c(C)c1` [Example 2.6] stands 134 nM; under `CCN1CCN(Cc2ccc(C(=O)Cn3ccc(OCc4ccc(Cl)cn4)cc3=O)c(C)c2)CC1` [Example 3.1, 4-(5-Chloro-pyridin-2-ylmethoxy)-1-{2-[4-(4-ethyl-piperazin-1-ylmethyl)-2-methyl-phenyl]-2-oxo-ethyl}-1H-pyridin-2-one], 79 nM.
Take `Cc1cc(CN2CCC[C@H]2CO)ccc1C(=O)Cn1ccc(OCc2ccc(Cl)cn2)cc1=O` [Example 3.2, 4-(5-Chloro-pyridin-2-ylmethoxy)-1-{2-[4-((S)-2-hydroxymethyl-pyrrolidin-1-ylmethyl)-2-methyl-phenyl]-2-oxo-ethyl}-1H-pyridin-2-one]: the 50% inhibitory concentration (IC50) was 36 nM.
Under `Cc1cc(CN2CC[C@H](O)C2)ccc1C(=O)Cn1ccc(OCc2ccc(Cl)cn2)cc1=O` [Example 3.3] stands 39 nM; under `Cc1cc(CN2CC[C@@H](O)C2)ccc1C(=O)Cn1ccc(OCc2ccc(Cl)cn2)cc1=O` [Example 3.4, (R)-4-(5-Chloro-pyridin-2-ylmethoxy)-1-{2-[4-(3-hydroxy-pyrrolidin-1-ylmethyl)-2-methyl-phenyl]-2-oxo-ethyl}-1H-pyridin-2-one], 38 nM.
Under `Cc1cc(CN2CCN(C)CC2)ccc1C(=O)Cn1ccc(OCc2ccc(Cl)cn2)cc1=O` [Example 3.5] stands 84 nM; under `Cc1cc(CN2CCCCC2)ccc1C(=O)Cn1ccc(OCc2ccc(Cl)cn2)cc1=O` [Example 3.6], 26 nM; under `Cc1cc(CN2CCC(O)CC2)ccc1C(=O)Cn1ccc(OCc2ccc(Cl)cn2)cc1=O` [Example 3.7], 36 nM.
On to `Cc1cc(CN2CCCC2)ccc1C(=O)Cn1ccc(OCc2ccc(Cl)cn2)cc1=O` [Example 3.8, 4-(5-Chloro-pyridin-2-ylmethoxy)-1-[2-(2-methyl-4-pyrrolidin-1-ylmethyl-phenyl)-2-oxo-ethyl]-1H-pyridin-2-one], for which the IC50 amounted to 26 nM.
Under `CNCc1ccc(C(=O)Cn2ccc(OCc3ccc(Cl)cn3)cc2=O)c(C)c1` [Example 3.10] stands 37 nM.
As to `CCNCc1ccc(C(=O)Cn2ccc(OCc3ccc(Cl)cn3)cc2=O)c(C)c1` [Example 3.11, 4-(5-Chloro-pyridin-2-ylmethoxy)-1-[2-(4-ethylaminomethyl-2-methyl-phenyl)-2-oxo-ethyl]-1H-pyridin-2-one], the half-inhibitory concentration (IC50) amounted to 26 nM.
Turning to `Cc1cc(CN2CCC(CO)CC2)ccc1C(=O)Cn1ccc(OCc2ccc(Cl)cn2)cc1=O` [Example 3.12], the IC50 is 34 nM.
Under `Cc1cc(CN2CCC[C@@H](O)C2)ccc1C(=O)Cn1ccc(OCc2ccc(Cl)cn2)cc1=O` [Example 3.13, (R)-4-(5-Chloro-pyridin-2-ylmethoxy)-1-{2-[4-(3-hydroxy-piperidin-1-ylmethyl)-2-methyl-pheny]-2-oxo-ethyl}-1H-pyridin-2-one] stands 34 nM; under `Cc1cc(CN2CCCC[C@@H]2CO)ccc1C(=O)Cn1ccc(OCc2ccc(Cl)cn2)cc1=O` [Example 3.14], 37 nM; under `Cc1cc(CN2CC(O)C2)ccc1C(=O)Cn1ccc(OCc2ccc(Cl)cn2)cc1=O` [Example 3.15, 4-(5-Chloro-pyridin-2-ylmethoxy)-1-{2-[4-(3-hydroxy-azetidin-1-ylmethyl)-2-methyl-phenyl]-2-oxo-ethyl}-1H-pyridin-2-one], 31 nM.
As for `Cc1cc(CN2CC3CC(C2)C3O)ccc1C(=O)Cn1ccc(OCc2ccc(Cl)cn2)cc1=O` (stereo not drawn) [Example 3.16], the figure is 19 nM.
Under `Cc1cc(CN2CCC(O)CC2)ccc1C(=O)Cn1ccc(OCc2ccc(Br)cn2)cc1=O` [Example 4.2, 4-(5-Bromo-pyridin-2-ylmethoxy)-1-{2-[4-(4-hydroxy-piperidin-1-ylmethyl)-2-methyl-phenyl]-2-oxo-ethyl}-1H-pyridin-2-one] stands 16 nM; under `Cc1cc(CN2CCC(CO)CC2)ccc1C(=O)Cn1ccc(OCc2ccc(Br)cn2)cc1=O` [Example 4.3, 4-(5-Bromo-pyridin-2-ylmethoxy)-1-{2-[4-(4-hydroxymethyl-piperidin-1-ylmethyl)-2-methyl-phenyl]-2-oxo-ethyl}-1H-pyridin-2-one], 13 nM; under `Cc1cc(CN2CCC[C@H](O)C2)ccc1C(=O)Cn1ccc(OCc2ccc(Br)cn2)cc1=O` [Example 4.4, (S)-4-(5-Bromo-pyridin-2-ylmethoxy)-1-{2-[4-(3-hydroxy-piperidin-1-ylmethyl)-2-methyl-phenyl]-2-oxo-ethyl}-1H-pyridin-2-one], 18 nM.
In turn, `Cc1cc(CN2CCC[C@H]2CO)ccc1C(=O)Cn1ccc(OCc2ccc(Br)cn2)cc1=O` [Example 4.5, (S)-4-(5-Bromo-pyridin-2-ylmethoxy)-1-{2-[4-(2-hydroxymethyl-pyrrolidin-1-ylmethyl)-2-methyl-phenyl]-2-oxo-ethyl}-1H-pyridin-2-one] displayed an IC50 of 13 nM.
